Reference: patent US20230346827A1 (priority 2020, published 2023)

System: rats subjected to sTBI
Assay: sTBI rats, LMW-DS 1, 5, 15 mg/kg s.c. 30 min post-TBI: HPLC of brain energy metabolites, antioxidants, oxidative/nitrosative stress biomarkers (Example 4)
Type: in vivo, rat
Method: Male Wistar rats (n=160) of 300-350 g body weight were used in this study. They were fed with standard laboratory diet and water ad libitum in a controlled environment.
As the accepted anesthetic mixture, animals received 35 mg/kg b.w. ketamine and 0.25 mg/kg body weight midazolam by intramuscular injection. Diffuse sTBI was induced according to the “weight drop” impact acceleration model set up by Marmarou et al. J. Neurosurg. 1994, 80: 291-300. This model causes diffuse axonal injury and it is able to reproduce the physical and mechanical characteristics of the diffuse TBI in humans.
Severe TBI was induced by dropping a 450 g weight from 2 meters height onto the rat head protected by a helmet (metal disk previously fixed on the skull using dental cement) in order to uniformly distribute the mechanical force to the brain. Rats were placed prone on a bed of specific polyurethane foam inserted in a special container; this foam dissipates the major part of the potential energy (deriving from the mechanical forces) and prevents any rebound of the animal after the impact that could produce spinal damages.
After 2 or 7 days from TBI induction, rats were anesthetized again and then immediately sacrificed. These time points are coincident with the worst biochemical derangement (2 days) or, in the case of a mildly injured brain, with a full metabolic recovery (7 days).
The drug treatment consisted in a subcutaneous injection of 0.5 ml of LMW-DS (ILB®, Tikomed, Viken, Sweden, WO 2016/076780) and administered at 3 different concentrations (1, 5 and 15 mg/kg body weight), according to the schematic protocol described below. Sham-operated animals underwent the same procedure of anesthesia but TBI and were used as the control group.
(§1) Rats subjected to sTBI and receiving a single administration of LMW-DS after 30 minutes post-TBI, with sacrifice at 2 days post-TBI. Animals were divided in the following subgroups: • 1. 12 animals subjected to sTBI and treated with 1 mg/kg b.w. LMW-DS • 2. 12 animals subjected to sTBI and treated with 5 mg/kg b.w. LMW-DS • 3. 12 animals subjected to sTBI and treated with 15 mg/kg b.w. LMW-DS
as §1, with “at 7” for “at 2”
Rats (n = 12) subjected to sTBI and receiving repeated administrations of the maximal dose of LMW-DS (15 mg/kg b.w.) after 30 minutes, 3 days and 5 days post-TBI, with sacrifice at 7 days post-TBI. Four additional rats were used for the histo-morphological studies. Total rats in this group: n=16
To minimize metabolite loss, an in vivo craniectomy was performed in all animals during anesthesia. The rat skull was carefully removed, the brain was exposed, sharply cut along the sagittal fissure and the two hemispheres were separated. The hemispheres dedicated to biochemical analyses were freeze-clamped by aluminum tongues pre-cooled in liquid nitrogen and then immersed in liquid nitrogen. The freeze-clamping procedure was introduced to accelerate freezing of the tissue, thus minimizing potential metabolite loss.
Tissue homogenization for metabolite analyses was effected as described below. After the wet weight (w.w.) determination, the frozen hemispheres were placed into 7 ml of ice-cold, nitrogen-saturated, precipitating solution (1:10 w/v) composed by CH3CN + 10 mM KH2PO4, pH 7.40, (3:1; v:v), and the homogenization was performed using an Ultra-Turrax homogenizer set at 24,000 rpm/min (Janke & Kunkel, Staufen, Germany). […]

[1] = 15 mg/kg, 7 d post-sTBI, adimensional ratio

Substance: sodium salt of dextran sulfate [LMW-DS]
- GDP (15 mg/kg, 2 d post-sTBI): 194.61 ± 26.88 nmol/g w.w.
- GDP Glucose (15 mg/kg, 2 d post-sTBI): 84.24 ± 37.54 nmol/g w.w.
- GMP (15 mg/kg, 2 d post-sTBI): 178.88 ± 22.46 nmol/g w.w.
- GSH (15 mg/kg, 2 d post-sTBI): 2418.94 ± 352.75 nmol/g w.w.
- GTP (15 mg/kg, 2 d post-sTBI): 179.07 ± 18.89 nmol/g w.w.
- GUANINE (15 mg/kg, 2 d post-sTBI): 1.61 ± 0.40 nmol/g w.w.
- GUANOSINE (15 mg/kg, 2 d post-sTBI): 24.35 ± 4.05 nmol/g w.w.
- HYPOXANTHINE (15 mg/kg, 2 d post-sTBI): 6.82 ± 1.12 nmol/g w.w.
- IMP (15 mg/kg, 2 d post-sTBI): 68.95 ± 12.98 nmol/g w.w.
- INOSINE (15 mg/kg, 2 d post-sTBI): 142.91 ± 18.63 nmol/g w.w.
- MDA (15 mg/kg, 2 d post-sTBI): 18.28 ± 2.98 nmol/g w.w.
- Malonyl-CoA (15 mg/kg, 2 d post-sTBI): 28.73 ± 6.09 nmol/g w.w.
- NADH (15 mg/kg, 2 d post-sTBI): 10.83 ± 1.58 nmol/g w.w.
- NADPH (15 mg/kg, 2 d post-sTBI): 8.93 ± 0.74 nmol/g w.w.
- NADP^+ (15 mg/kg, 2 d post-sTBI): 17.75 ± 4.06 nmol/g w.w.
- NAD^+ (15 mg/kg, 2 d post-sTBI): 475.32 ± 80.91 nmol/g w.w.
- NO2 (15 mg/kg, 2 d post-sTBI): 72.29 ± 8.71 nmol/g w.w.
- NO3 (15 mg/kg, 2 d post-sTBI): 56.50 ± 12.30 nmol/g w.w.
- UDP (15 mg/kg, 2 d post-sTBI): 80.00 ± 8.20 nmol/g w.w.
- UDP-Gal (15 mg/kg, 2 d post-sTBI): 116.34 ± 9.71 nmol/g w.w.
- UDP-GalNac (15 mg/kg, 2 d post-sTBI): 22.37 ± 3.30 nmol/g w.w.
- UDP-Glc (15 mg/kg, 2 d post-sTBI): 43.41 ± 6.43 nmol/g w.w.
- UDP-GlcNac (15 mg/kg, 2 d post-sTBI): 108.74 ± 9.90 nmol/g w.w.
- UMP (15 mg/kg, 2 d post-sTBI): 147.53 ± 20.38 nmol/g w.w.
- URACIL (15 mg/kg, 2 d post-sTBI): 15.55 ± 3.04 nmol/g w.w.
- URIC ACID (15 mg/kg, 2 d post-sTBI): 26.00 ± 5.33 nmol/g w.w.
- URIDINE (15 mg/kg, 2 d post-sTBI): 87.55 ± 15.41 nmol/g w.w.
- UTP (15 mg/kg, 2 d post-sTBI): 108.21 ± 16.99 nmol/g w.w.
- XANTHINE (15 mg/kg, 2 d post-sTBI): 13.87 ± 1.44 nmol/g w.w.
- β-PSEUDOURIDINE (15 mg/kg, 2 d post-sTBI): 7.84 ± 1.57 nmol/g w.w.
- NAD^+/NADH (15 mg/kg, 2 d post-sTBI, adimensional ratio): 44.40 ± 7.67
- ADENOSINE (15 mg/kg, 7 d post-sTBI): 55.95 ± 41.44 nmol/g w.w.
- ADP (15 mg/kg, 7 d post-sTBI): 276.83 ± 36.87 nmol/g w.w.
- ADP-Ribose (15 mg/kg, 7 d post-sTBI): 19.21 ± 4.82 nmol/g w.w.
- AMP (15 mg/kg, 7 d post-sTBI): 50.50 ± 3.97 nmol/g w.w.
- ASCORBIC ACID (15 mg/kg, 7 d post-sTBI): 2853.35 ± 343.64 nmol/g w.w.
- ATP (15 mg/kg, 7 d post-sTBI): 1846.63 ± 148.55 nmol/g w.w.
- Acetyl-CoA (15 mg/kg, 7 d post-sTBI): 38.60 ± 6.57 nmol/g w.w.
- CDP choline (15 mg/kg, 7 d post-sTBI): 10.06 ± 3.23 nmol/g w.w.
- CMP (15 mg/kg, 7 d post-sTBI): 47.10 ± 20.04 nmol/g w.w.
- CREATININE (15 mg/kg, 7 d post-sTBI): 5.23 ± 0.92 nmol/g w.w.
- CTP (15 mg/kg, 7 d post-sTBI): 96.44 ± 25.54 nmol/g w.w.
- CYTIDINE (15 mg/kg, 7 d post-sTBI): 33.06 ± 11.63 nmol/g w.w.
- CYTOSINE (15 mg/kg, 7 d post-sTBI): 13.87 ± 2.98 nmol/g w.w.
- CoA-SH (15 mg/kg, 7 d post-sTBI): 64.93 ± 8.33 nmol/g w.w.
- GDP (15 mg/kg, 7 d post-sTBI): 122.07 ± 13.95 nmol/g w.w.
- GDP Glucose (15 mg/kg, 7 d post-sTBI): 101.65 ± 11.89 nmol/g w.w.
- GMP (15 mg/kg, 7 d post-sTBI): 41.55 ± 19.66 nmol/g w.w.
- GSH (15 mg/kg, 7 d post-sTBI): 2390.89 ± 315.16 nmol/g w.w.
- GTP (15 mg/kg, 7 d post-sTBI): 479.98 ± 43.64 nmol/g w.w.
- GUANINE (15 mg/kg, 7 d post-sTBI): 5.27 ± 2.24 nmol/g w.w.
- GUANOSINE (15 mg/kg, 7 d post-sTBI): 20.91 ± 4.36 nmol/g w.w.
- HYPOXANTHINE (15 mg/kg, 7 d post-sTBI): 10.21 ± 2.97 nmol/g w.w.
- IMP (15 mg/kg, 7 d post-sTBI): 74.70 ± 19.13 nmol/g w.w.
- INOSINE (15 mg/kg, 7 d post-sTBI): 104.41 ± 11.72 nmol/g w.w.
- MDA (15 mg/kg, 7 d post-sTBI): 6.23 ± 1.03 nmol/g w.w.
- Malonyl-CoA (15 mg/kg, 7 d post-sTBI): 7.98 ± 1.44 nmol/g w.w.
- NADH (15 mg/kg, 7 d post-sTBI): 11.65 ± 1.63 nmol/g w.w.
- NADPH (15 mg/kg, 7 d post-sTBI): 6.66 ± 1.55 nmol/g w.w.
- NADP^+ (15 mg/kg, 7 d post-sTBI): 23.75 ± 8.72 nmol/g w.w.
- NAD^+ (15 mg/kg, 7 d post-sTBI): 491.52 ± 69.61 nmol/g w.w.
- NO2 (15 mg/kg, 7 d post-sTBI): 110.72 ± 23.99 nmol/g w.w.
- NO3 (15 mg/kg, 7 d post-sTBI): 161.99 ± 27.67 nmol/g w.w.
- UDP (15 mg/kg, 7 d post-sTBI): 37.91 ± 5.33 nmol/g w.w.
- UDP-Gal (15 mg/kg, 7 d post-sTBI): 137.57 ± 9.46 nmol/g w.w.
- UDP-GalNac (15 mg/kg, 7 d post-sTBI): 17.91 ± 5.13 nmol/g w.w.
- UDP-Glc (15 mg/kg, 7 d post-sTBI): 62.97 ± 12.80 nmol/g w.w.
- UDP-GlcNac (15 mg/kg, 7 d post-sTBI): 67.47 ± 23.34 nmol/g w.w.
- UMP (15 mg/kg, 7 d post-sTBI): 181.82 ± 35.22 nmol/g w.w.
- URACIL (15 mg/kg, 7 d post-sTBI): 15.92 ± 3.27 nmol/g w.w.
- URIC ACID (15 mg/kg, 7 d post-sTBI): 8.60 ± 2.05 nmol/g w.w.
- URIDINE (15 mg/kg, 7 d post-sTBI): 134.04 ± 31.76 nmol/g w.w.
- UTP (15 mg/kg, 7 d post-sTBI): 127.42 ± 22.32 nmol/g w.w.
- XANTHINE (15 mg/kg, 7 d post-sTBI): 12.71 ± 3.60 nmol/g w.w.
- β-PSEUDOURIDINE (15 mg/kg, 7 d post-sTBI): 63.77 ± 11.83 nmol/g w.w.
- ATP/ADP [1]: 6.76 ± 0.86
- NAD+/NADH [1]: 42.51 ± 5.26
- whole brain NAA (5 or 15 mg/kg b.w., 2 days post impact): significantly higher than values found in sTBI rats
- ATP levels, % lower than the value of controls (7 days post impact): 16%
- NAA concentration, % lower than the value of controls (7 days post impact): 16%
- whole brain NAA (increasing single doses or repeat maximal dose, 7 days post sTBI): dose dependent increase
